Measurements published in PubChem BioAssay (NCI).
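Tested at 5 concentrations; 48 h exposure; 96-well plates; endpoints linearly interpolated, else capped at highest concentration. The concentration for 50% growth inhibition is given as GI50. TGI is the concentration that stops growth completely.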

Key:
Assay in all cases: NCI tumour cell line growth inhibition, 48 h
[1] = system: COLO 205 colon
[2] = system: OVCAR-5 ovarian
[3] = system: SF-539 CNS
[4] = system: SK-MEL-28 melanoma
[5] = system: UACC-257 melanoma
[6] = system: HS 578T breast
[7] = system: MDA-MB-435
[8] = system: RXF 393 renal
[9] = system: SK-MEL-5 melanoma
[10] = system: NCI/ADR-RES ovarian

| SMILES | TGI [1] [µM] | TGI [2] [µM] | TGI [3] [µM] | TGI [4] [µM] | TGI [5] [µM] | GI50 [1] [µM] | GI50 [6] [µM] | TGI [6] [µM] | GI50 [7] [µM] | TGI [7] [µM] | GI50 [2] [µM] | GI50 [8] [µM] | TGI [8] [µM] | GI50 [3] [µM] | GI50 [4] [µM] | GI50 [9] [µM] | TGI [9] [µM] | GI50 [5] [µM] | GI50 [10] [µM] | TGI [10] [µM] |
| --- | --- | --- | --- | --- | --- | --- | --- | --- | --- | --- | --- | --- | --- | --- | --- | --- | --- | --- | --- | --- |
| CC1(C)C2CCC13CS(=O)(=O)N1O[C@]13C(=O)O2 (some centres undefined) | > 100 | > 100 | > 100 | > 100 | > 100 | – | – | – | – | – | – | – | – | – | – | – | – | – | – | – |
| COc1ccc(OC)c(C2SCC(=O)N2NC(=O)C(O)c2ccccc2)c1 (centres undefined) | > 100 | > 100 | > 100 | > 100 | > 100 | > 100 | > 100 | > 100 | > 100 | > 100 | > 100 | > 100 | > 100 | > 100 | > 100 | > 100 | > 100 | > 100 | – | – |
| COc1cc2c(c(OC)c1OC)-c1ccc(SC)c(=O)cc1[C@@H](NC1OC(CO)C(O)C(O)C1O)CC2 (some centres undefined) | 0.0412 | > 100 | 0.0703 | > 100 | > 100 | 0.0161 | 0.0425 | 61 | – | 0.0373 | 0.0519 | 0.0613 | > 100 | 0.0243 | 1.65 | 0.0288 | 0.195 | 0.447 | 0.0556 | > 100 |
| O=C([CH-]C(=O)c1ccccc1)c1ccccc1.O=C([CH-]C(=O)c1ccccc1)c1ccccc1.[OH-].[OH-].[Ti+4] | > 100 | > 100 | > 100 | – | > 100 | > 100 | – | – | – | – | > 100 | 6.85 | 25.9 | 29.7 | – | 31.2 | > 100 | > 100 | – | – |
| COc1ccc(-c2cc(=O)c3c(OC)c(OC)c(OC)c(OC)c3o2)cc1 | > 100 | > 100 | > 100 | > 100 | > 100 | – | – | > 100 | – | > 100 | – | – | > 100 | – | – | – | > 100 | – | – | > 100 |
| C=C1CCC2[C@@H](CCC3[C@]2(C)CCC[C@]3(C)C(=O)OC)[C@@H]1CC=O (some centres undefined) | > 100 | > 100 | 37.6 | 91.8 | 68.9 | – | – | – | – | – | 50.8 | – | – | – | – | – | 32.5 | – | – | – |
| CCCCCn1sc(=O)n(Cc2ccc(CNC(=O)OCc3ccc4cccc(O)c4n3)cc2)c1=O | 3.75 | 3.09 | 2.8 | 2.94 | 3.08 | 1.59 | 2.17 | 6.73 | 1.17 | 2.5 | 1.68 | 1.37 | 2.67 | 1.48 | 1.6 | 1.69 | 3.07 | 1.57 | 1.54 | 4.41 |
| COc1ccc(C(=O)N2c3ccccc3Sc3ccccc32)c(OC)c1 | – | > 100 | 4.37 | > 100 | > 100 | – | 0.482 | > 100 | 0.212 | 0.953 | 10 | 0.413 | > 100 | 0.333 | 0.942 | 0.408 | > 100 | 27.8 | 0.4 | 42.1 |
